Measured values: patent US6706663B2, “Herbicidal 3-heterocyclic substituted benzisothiazole and benzisoxazole compounds” (Wyeth, priority 2000, dated 2004)

Experiments:
[1] = tested on: ZEAMX (Corn, Field); assay: Preemergence herbicidal evaluation; type: in vivo, Zea mays, L.; settings: rated 4-5 weeks after treatment
[2] = tested on: IPOHE (Ipomoea hederacea); assay: Postemergence herbicidal evaluation; type: in vivo, (L.) Jacq.
Summary of the method: (§1)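 Seedlings grown about two weeks in flats, sprayed, then kept under standard greenhouse care. Rated visually 4–5 weeks after treatment on a 0–9 scale (stand, vigour, malformation, size, chlorosis, overall appearance) relative to untreated control; repeat tests averaged.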

[3] = tested on: SETVI (Setaria viridis); assay: Postemergence herbicidal evaluation; type: in vivo, (L.) Beau
Summary of the method: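 Visual injury score (0-9: stand, vigor, malformation, size, chlorosis, overall appearance vs untreated control) taken four to five weeks post-spray. Two-week-old seedlings received about 0.0040 to 1.000 kg/ha active compound in acetone/water with 0.5% TWEEN 20.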

[4] = tested on: CYPIR (Cyperus iria); assay: Flooded paddy, preemergence weed control; type: in vivo; settings: rated 3-4 weeks after treatment, 0-9 rating scale
Summary of the method: (§2)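 Preemergence, flooded: propagules planted at 0.5 cm depth in silt loam, water level maintained at 1.5 to 3 cm over soil, containers kept on greenhouse benches. Activity scored 0-9 by eye relative to a control plant.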

[5] = tested on: GLXMAW (Soybean, Williams); assay: Preemergence herbicidal evaluation; type: in vivo, Glycine max, (L.) Merr. cv Williams; settings: rated 4-5 weeks after treatment
[6] = tested on: ECHORC (Echinochloa oryzoides); assay: Flooded paddy, preemergence weed control; type: in vivo, Echinochloa oryzoides (Ard.) Fritsch.; settings: rated 3-4 weeks after treatment, 0-9 rating scale
Summary of the method: as §2

[7] = tested on: ECHCG (Echinochloa crus-galli); assay: Preemergence herbicidal evaluation; type: in vivo, (L.) Beau; settings: rated 4-5 weeks after treatment
Summary of the method: (§3)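 Seeds planted in potting soil cups and sprayed preemergence with aqueous acetone compound solution. Greenhouse-grown; rated 4–5 weeks after treatment on a 0-9 visual scale (stand, vigor, malformation, size, chlorosis, appearance) versus control.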

[8] = tested on: SETVI (Setaria viridis); assay: Preemergence herbicidal evaluation; type: in vivo, (L.) Beau; settings: rated 4-5 weeks after treatment
Summary of the method: as §3

[9] = tested on: TRZAWR (Wheat, Winter, cv Riband); assay: Postemergence herbicidal evaluation; type: in vivo, Triticum aestivum
Summary of the method: as §1

[10] = tested on: MOOVA (Monochoria vaginalis); assay: Flooded paddy, preemergence weed control; type: in vivo, Presl.; settings: rated 3-4 weeks after treatment, 0-9 rating scale
Summary of the method: as §2

Compound	ZEAMX preemergence herbicidal rating ([1]; Rate 0.0620 kg/ha)	ZEAMX preemergence herbicidal rating ([1]; Rate 0.1250 kg/ha)	ZEAMX preemergence herbicidal rating ([1]; Rate 0.2500 kg/ha)	Postemergence herbicidal rating, IPOHE ([2]; rate 0.0320 kg/ha)	Postemergence herbicidal rating, IPOHE ([2]; rate 0.0620 kg/ha)	Postemergence herbicidal rating, SETVI ([3]; rate 0.0320 kg/ha)	Postemergence herbicidal rating, SETVI ([3]; rate 0.0620 kg/ha)	herbicidal rating, CYPIR ([4]; rate 0.0320 kg/ha)	herbicidal rating, CYPIR ([4]; rate 0.1250 kg/ha)	GLXMAW preemergence herbicidal rating ([5]; Rate 0.1250 kg/ha)	GLXMAW preemergence herbicidal rating ([5]; Rate 0.2500 kg/ha)	herbicidal rating, ECHORC ([6]; rate 0.0320 kg/ha)	herbicidal rating, ECHORC ([6]; rate 0.1250 kg/ha)	ECHCG preemergence herbicidal rating ([7]; Rate 0.1250 kg/ha)	ECHCG preemergence herbicidal rating ([7]; Rate 0.2500 kg/ha)	SETVI preemergence herbicidal rating ([8]; Rate 0.1250 kg/ha)	SETVI preemergence herbicidal rating ([8]; Rate 0.2500 kg/ha)	Postemergence herbicidal rating, TRZAWR ([9]; rate 0.0320 kg/ha)	Postemergence herbicidal rating, TRZAWR ([9]; rate 0.0620 kg/ha)	herbicidal rating, MOOVA ([10]; rate 0.0320 kg/ha)	other results
CC1CCOC(c2nsc3ccc(-n4c(=O)cc(C(F)(F)F)n(C)c4=O)cc23)O1 (stereo not shown) [Compound 37, 1-methyl-3-[3-(4-methyl-m-dioxan-2-yl)-1,2-benzisothiazol-5-yl]-6-(trifluoromethyl)uracil]	9.0	9.0	9.0	9.0	9.0	9.0	9.0	9.0	9.0	9.0	9.0	9.0	9.0	9.0	9.0	9.0	9.0	5.0	7.0	9.0	herbicidal rating, CYPIR ([4]; rate 0.0080 kg/ha): 0.0; GLXMAW preemergence herbicidal rating ([5]; Rate 0.0620 kg/ha): 9.0; herbicidal rating, ECHORC ([6]; rate 0.0080 kg/ha): 3.0; ECHCG preemergence herbicidal rating ([7]; Rate 0.0620 kg/ha): 9.0; SETVI preemergence herbicidal rating ([8]; Rate 0.0620 kg/ha): 9.0; herbicidal rating, MOOVA ([10]; rate 0.0080 kg/ha): 3.0
Cc1ccn(-c2nsc3ccc(-n4c(=O)cc(C(F)(F)F)n(C)c4=O)cc23)n1 [Compound 38, 1-methyl-3-[3-(3-methylpyrazol-1-yl)-1,2-benzisothiazol-5-yl]-6-(trifluoromethl)uracil]	5.0	5.0	8.0	7.0	9.0	0.0	3.0	9.0	9.0	4.0	4.0	7.0	9.0	9.0	9.0	9.0	9.0	3.5	4.0	9.0	herbicidal rating, CYPIR ([4]; rate 0.0080 kg/ha): 3.0; GLXMAW preemergence herbicidal rating ([5]; Rate 0.0620 kg/ha): 0.0; herbicidal rating, ECHORC ([6]; rate 0.0080 kg/ha): 0.0; ECHCG preemergence herbicidal rating ([7]; Rate 0.0620 kg/ha): 7.0; SETVI preemergence herbicidal rating ([8]; Rate 0.0620 kg/ha): 5.0; herbicidal rating, MOOVA ([10]; rate 0.0080 kg/ha): 3.0
C#CCOC(=O)COc1ccsc1-c1nsc2ccc(-n3c(=O)cc(C(F)(F)F)n(C)c3=O)cc12 [Compound 39, 2-propynyl [[2-[5-[3,6-dihydro-3-methyl-2,6-dioxo-4-(trifluoromethyl)-1(2H)-pyrimidinyl]-1,2-benzisothiazol-3-yl]-3-thienyl]oxy]acetate]		0.0	1.0	4.0	4.0	0.0	3.0	5.0	5.0	1.0	1.0	0.0	0.0	0.0	0.0	1.0	6.0	1.5	2.0	9.0	Preemergence herbicidal rating ZEAMX ([1]; Rate 0.0620 kg/ha): 0.0; Preemergence herbicidal rating GLXMAW ([5]; Rate 0.0620 kg/ha): 0.0; Preemergence herbicidal rating ECHCG ([7]; Rate 0.0620 kg/ha): 0.0; Preemergence herbicidal rating SETVI ([8]; Rate 0.0620 kg/ha): 0.0; herbicidal rating, MOOVA ([10]; rate 0.1250 kg/ha): 9.0
